Active and inactive are the calls of the source. The calls are words filed in the database; no cut-off is given here.
Key:
COLO 205 = experiment: Growth inhibition of human COLO205 cells; assay type: functional
HOP-62 = experiment: Growth inhibition of human HOP62 cells; assay type: functional
ZR-75-1 = experiment: Growth inhibition of human ZR-75-1 cells; assay type: functional
MCF7 [1] = experiment: Cell cycle arrest in human MCF7 cells assessed as accumulation at G1 phase at 4 uM after 24 hrs by propidium iodide staining based flow cytometry (reference value: 57.98%); assay type: functional
KB = experiment: Growth inhibition of human KB cells; assay type: functional
MCF7 [2] = experiment: Cell cycle arrest in human MCF7 cells assessed as accumulation at G0 phase at 4 uM after 24 hrs by propidium iodide staining based flow cytometry (reference value: 2.77%); assay type: functional
MCF7 [3] = experiment: Cell cycle arrest in human MCF7 cells assessed as accumulation at G0/G1 phase at 4 uM after 24 hrs by propidium iodide staining based flow cytometry (reference value: 60.75%); assay type: functional
PC-3 = experiment: Growth inhibition of human PC3 cells; assay type: functional
MCF7 [4] = experiment: Cell cycle arrest in human MCF7 cells assessed as accumulation at S phase at 4 uM after 24 hrs by propidium iodide staining based flow cytometry (reference value: 14.30%); assay type: functional
MCF7 [5] = experiment: Growth inhibition of human MCF7 cells; assay type: functional
SiHa = experiment: Growth inhibition of human SiHa cells; assay type: functional
MCF7 [6] = experiment: Cell cycle arrest in human MCF7 cells assessed as accumulation at G2/M phase at 4 uM after 24 hrs by propidium iodide staining based flow cytometry (reference value: 24.95%); assay type: functional
A2780 = experiment: Growth inhibition of human A2780 cells; assay type: functional
[7] = Growth inhibition of human Gurav cells; assay type: functional
A549 = experiment: Growth inhibition of human A549 cells; assay type: functional
Calf thymus DNA = experiment: Binding affinity to calf thymus DNA assessed as change in melting temperature at compound to DNA ratio of 1:5 after 18 hrs by thermal denaturation analysis; assay type: nucleic-acid assay; conditions: Bos taurus
NCI-H226 = experiment: Growth inhibition of human NCI-H226 cells; assay type: functional
[8] = Growth inhibition of human BT549 cells; assay type: functional; conditions: BT-549
HT-29 = experiment: Growth inhibition of human HT-29 cells; assay type: functional
[9] = Growth inhibition of human EKVX cells; assay type: functional
[10] = Growth inhibition of human HOP92 cells; assay type: functional; conditions: HOP-92
[11] = Growth inhibition of human UO31 cells; assay type: functional; conditions: UO-31
SW-620 = experiment: Growth inhibition of human SW620 cells; assay type: functional
T47D = experiment: Growth inhibition of human T47D cells; assay type: functional
[12] = Growth inhibition of human HCT15 cells; assay type: functional; conditions: HCT-15
[13] = Growth inhibition of human HCC2998 cells; assay type: functional; conditions: HCC 2998
NCI-H522 = experiment: Growth inhibition of human NCI-H522 cells; assay type: functional
MDA-MB-468 = experiment: Growth inhibition of human MDA-MB-468 cells; assay type: functional
SK-OV-3 = experiment: Growth inhibition of human SKOV3 cells; assay type: functional
MCF7 [14] = experiment: Cytotoxicity against human MCF7 cells assessed as decrease in cell viability at 4 uM after 24 hrs by MTT assay; assay type: functional, cell-based
[15] = Growth inhibition of human OVCAR3 cells; assay type: functional; conditions: OVCAR-3
NCI-H23 = experiment: Growth inhibition of human NCI-H23 cells; assay type: functional
SK-MEL-28 = experiment: Growth inhibition of human SK-MEL-28 cells; assay type: functional
[16] = Growth inhibition of human MDA-MB cells; assay type: functional
HL-60(TB) = experiment: Growth inhibition of human HL-60(TB) cells; assay type: functional
[17] = Growth inhibition of human UACC257 cells; assay type: functional; conditions: UACC-257
TK-10 = experiment: Growth inhibition of human TK10 cells; assay type: functional
MCF7 [18] = experiment: Antiproliferative activity against human MCF7 cells assessed as cell proliferation at 4 uM after 24 hrs by BrdU incorporation assay (reference value: 100%); assay type: functional; conditions: MCF7, 24 h, read-out: Activity
SR = experiment: Growth inhibition of human SR cells; assay type: functional
IGROV-1 = experiment: Growth inhibition of human IGROV1 cells; assay type: functional
CCRF-CEM = experiment: Growth inhibition of human CCRF-CEM cells; assay type: functional
NCI-H460 = experiment: Growth inhibition of human NCI-H460 cells; assay type: functional
MCF7 [19] = experiment: Cytotoxicity against human MCF7 cells assessed as decrease in cell viability at 2 to 16 uM after 6 to 48 hrs by MTT assay; assay type: functional, cell-based
[20] = Growth inhibition of human OVCAR5 cells; assay type: functional; conditions: OVCAR-5
KM12 = experiment: Growth inhibition of human KM12 cells; assay type: functional
MDA-MB-435 = experiment: Growth inhibition of human MDA-MB-435 cells; assay type: functional
[21] = Growth inhibition of human OVCAR4 cells; assay type: functional; conditions: OVCAR-4
CAKI-1 = experiment: Growth inhibition of human CAKI-1 cells; assay type: functional
SK-MEL-5 = experiment: Growth inhibition of human SK-MEL-5 cells; assay type: functional
SK-MEL-2 = experiment: Growth inhibition of human SK-MEL-2 cells; assay type: functional
[22] = Growth inhibition of human UACC62 cells; assay type: functional; conditions: UACC-62
U-251 = experiment: Growth inhibition of human U251 cells; assay type: functional
[23] = Growth inhibition of human LOXIMVI cells; assay type: functional; conditions: LOX IMVI
SN12C = experiment: Growth inhibition of human SN12C cells; assay type: functional
[24] = Growth inhibition of human Hs 578T cells; assay type: functional
SNB-19 = experiment: Growth inhibition of human SNB19 cells; assay type: functional
M14 = experiment: Growth inhibition of human M14 cells; assay type: functional
ACHN = experiment: Growth inhibition of human ACHN cells; assay type: functional
SNB-75 = experiment: Growth inhibition of human SNB75 cells; assay type: functional
786-0 = experiment: Growth inhibition of human 786-0 cells; assay type: functional
HCT-116 = experiment: Growth inhibition of human HCT116 cells; assay type: functional
[25] = Growth inhibition of human RXF393 cells; assay type: functional; conditions: RXF 393
SF-268 = experiment: Growth inhibition of human SF268 cells; assay type: functional
Malme-3M = experiment: Growth inhibition of human MALME-3M cells; assay type: functional
NCI-H322M = experiment: Growth inhibition of human NCI-H322M cells; assay type: functional
[26] = Growth inhibition of human MOLT4 cells; assay type: functional; conditions: MOLT-4
A498 = experiment: Growth inhibition of human A498 cells; assay type: functional
MCF7 [27] = experiment: Cytotoxicity against human MCF7 cells by ATP-dependent cell viability assay; assay type: functional, cell-based
DU-145 = experiment: Growth inhibition of human DU145 cells; assay type: functional
[28] = Growth inhibition of human SF539 cells; assay type: functional; conditions: SF-539

## COc1cc2c(cc1O)N=C[C@@H]1CCCN1C2=O
COLO 205
  GI50: 110 nM
HOP-62
  GI50: 150 nM
ZR-75-1
  GI50: 2340 nM
MCF7 [1]
  Activity: 63.79%
KB
  GI50: 170 nM
MCF7 [2]
  Activity: 3.95%
MCF7 [3]
  Activity: 67.74%
PC-3
  GI50: 200 nM
MCF7 [4]
  Activity: 12.2%
MCF7 [5]
  GI50: 170 nM
SiHa
  GI50: 170 nM
MCF7 [6]
  Activity: 20.07%
A2780
  GI50: 140 nM
[7]
  GI50: 170 nM
A549
  GI50: 160 nM

## COc1cc2c(cc1OCCCCN1CCN(CCCCn3c4ccccc4c4ccccc43)CC1)N=C[C@@H]1CCCN1C2=O
COLO 205
  GI50: 160 nM
HOP-62
  GI50: 80 nM
ZR-75-1
  GI50: 150 nM
KB
  GI50: 150 nM
Calf thymus DNA
  ΔTm: 8.4 °C
PC-3
  GI50: 100 nM
MCF7 [5]
  GI50: 120 nM
SiHa
  GI50: 150 nM
A2780
  GI50: 160 nM
[7]
  GI50: 170 nM
A549
  GI50: 130 nM

## COc1cc2c(cc1OCCCCN1CCN(CCCn3c4ccccc4c4ccccc43)CC1)N=C[C@@H]1CCCN1C2=O
COLO 205
  GI50: 170 nM
HOP-62
  GI50: 110 nM
ZR-75-1
  GI50: 160 nM
KB
  GI50: 160 nM
Calf thymus DNA
  ΔTm: 7.9 °C
PC-3
  GI50: 140 nM
MCF7 [5]
  GI50: 150 nM
SiHa
  GI50: 160 nM
A2780
  GI50: 140 nM
[7]
  GI50: 150 nM
A549
  GI50: 140 nM

## COc1cc2c(cc1OCCCCn1c3ccccc3c3ccccc31)N=C[C@@H]1CCCN1C2=O
COLO 205
  GI50: 1700 nM
HOP-62
  GI50: 1930 nM
ZR-75-1
  GI50: 1810 nM
KB
  GI50: 1870 nM
Calf thymus DNA
  ΔTm: 3.5 °C
MCF7 [5]
  GI50: 2210 nM
SiHa
  GI50: 1700 nM
A2780
  GI50: 1570 nM
[7]
  GI50: 1600 nM
A549
  GI50: 1920 nM

## COc1cc2c(cc1OCCCn1c3ccccc3c3ccccc31)N=C[C@@H]1CCCN1C2=O
COLO 205
  GI50: 1680 nM
HOP-62
  GI50: 1930 nM
ZR-75-1
  GI50: 1890 nM
KB
  GI50: 1870 nM
Calf thymus DNA
  ΔTm: 4 °C
MCF7 [5]
  GI50: 1850 nM
SiHa
  GI50: 1700 nM
A2780
  GI50: 1210 nM
[7]
  GI50: 1600 nM
A549
  GI50: 1840 nM

## COc1cc2c(cc1OCCCN1CCN(CCCn3c4ccccc4c4ccccc43)CC1)N=C[C@@H]1CCCN1C2=O
NCI-H226
  GI50: 130 nM
[8]
  GI50: 130 nM
COLO 205
  GI50: 70 nM
HT-29
  GI50: 50 nM
[9]
  GI50: 140 nM
[10]
  GI50: 270 nM
[11]
  GI50: 120 nM
SW-620
  GI50: 40 nM
HOP-62
  GI50: 80 nM
T47D
  GI50: 170 nM
[12]
  GI50: 280 nM
ZR-75-1
  GI50: 130 nM
[13]
  GI50: 130 nM
NCI-H522
  GI50: < 10 nM
MCF7 [1]
  Activity: 69.47%
MDA-MB-468
  GI50: 110 nM
SK-OV-3
  GI50: 290 nM
MCF7 [14]
  inhibition: Active
[15]
  GI50: 69 nM
KB
  GI50: 130 nM
NCI-H23
  GI50: 260 nM
SK-MEL-28
  GI50: 60 nM
MCF7 [2]
  Activity: 17.13%
[16]
  GI50: 950 nM
HL-60(TB)
  GI50: 30 nM
MCF7 [3]
  Activity: 86.6%
Calf thymus DNA
  ΔTm: 7 °C
[17]
  GI50: 150 nM
TK-10
  GI50: 120 nM
MCF7 [18]
  growth at 4 µM: 35.2%
PC-3
  GI50: 30 nM
MCF7 [4]
  Activity: 9.53%
SR
  GI50: 30 nM
IGROV-1
  GI50: < 10 nM
CCRF-CEM
  GI50: 20 nM
NCI-H460
  GI50: 250 nM
MCF7 [19]
  inhibition: Active
MCF7 [5]
  GI50: 40 nM
SiHa
  GI50: 140 nM
[20]
  GI50: 30 nM
KM12
  GI50: 150 nM
MDA-MB-435
  GI50: 10 nM
[21]
  GI50: 100 nM
CAKI-1
  GI50: 120 nM
MCF7 [6]
  Activity: 3.87%
SK-MEL-5
  GI50: 230 nM
SK-MEL-2
  GI50: 190 nM
[22]
  GI50: 150 nM
A2780
  GI50: 120 nM
U-251
  GI50: 30 nM
[23]
  GI50: 30 nM
SN12C
  GI50: 270 nM
[24]
  GI50: 160 nM
[7]
  GI50: 120 nM
SNB-19
  GI50: 210 nM
M14
  GI50: 150 nM
ACHN
  GI50: 250 nM
SNB-75
  GI50: 150 nM
786-0
  GI50: 190 nM
HCT-116
  GI50: 60 nM
[25]
  GI50: 220 nM
SF-268
  GI50: 50 nM
Malme-3M
  GI50: 150 nM
NCI-H322M
  GI50: 250 nM
[26]
  GI50: 20 nM
A549
  GI50: 140 nM
A498
  GI50: 170 nM
MCF7 [27]
  inhibition: Active
DU-145
  GI50: 40 nM
[28]
  GI50: 120 nM

## COc1cc2c(cc1OCCCCCCn1c3ccccc3c3ccccc31)N=C[C@@H]1CCCN1C2=O
COLO 205
  GI50: 1620 nM
HOP-62
  GI50: 1580 nM
ZR-75-1
  GI50: 2140 nM
KB
  GI50: 1950 nM
Calf thymus DNA
  ΔTm: 4.7 °C
MCF7 [5]
  GI50: 1650 nM
SiHa
  GI50: 1580 nM
A2780
  GI50: 1700 nM
[7]
  GI50: 1710 nM
A549
  GI50: 1500 nM
